In patent EP4311550A1, “CHLOROPHYLLIDE DERIVATIVES FOR USE IN THE PREVENTION OR TREATMENT OF BACTERIAL INFECTION” (Université de Liège, priority 2022, dated 2024):
Several values for one entry are separate records, joined by “and”; a condition that tells them apart may be missing. Identical values can stand only once.

Columns and labels:
Assay type in all cases: cell-based
[1] = tested on: Staphylococcus aureus (ATCC 25923); test: disk diffusion assay (growth inhibition halo); details: for inhibition diameter (in brackets), in presence of light: Petri dishes incubated in presence of light; for inhibition diameter (in brackets), in the dark: incubation in the dark; for activity of inhibition of S. aureus growth: preparative HPLC fractions redissolved in MeOH/H2O 75%, disk diffusion assay, Figure 3
Protocol: The antimicrobial activity of these extracts was tested against Gram-positive and Gram-negative bacteria, yeasts and fungi by the diffusion disk method. The bacteria tested were Staphylococcus aureus (ATCC 25923), Enterococcus faecium (ATCC 19434), Escherichia coli (ATCC 25922), Pseudomonas aeruginosa (ATCC 27853), Klebsiella pneumoniae (ATCC 13883), methicillin resistant S. aureus (MRSA, ATCC43300) and Bacillus subtilis 168. The yeasts tested were Candida albicans (MUCL 29800), Saccharomyces cerevisiae (MUCL 31497) and the fungus Aspergillus niger (IHEM 3415). Mueller-Hinton II culture medium was used for cultivating S.aureus, E. coli, P. aeruginosa and K. pneumoniae; Brain Heart infusion Broth for E. faecium; Yeast Peptone Dextrose Broth for C. albicans and A. niger and S. cerevisiae. Agar plates with the appropriate medium were inoculated from the glycerol stock culture and Petri dishes were incubated overnight at 37°C for bacteria and at 28°C during 48 hours for the other strains. Colonies or spores (forA. niger) were then resuspended in a sterile solution of NaCl 0.85% to obtain a OD600 between 0.08 and 0.1 at 600 nm (which corresponds to tube of 0.5 on McFarland scale). Sterile cotton buds were soaked with the suspension and the micro-organisms were spread onto the Petri dish. Five sterile disks of chromatography paper (Whatman 3MM) with a diameter of 6,0 mm were placed on the agar plate. Two disks were respectively used for positive (1 mg/ml kanamycin for S. aureus, B. subtilis, E. coli and K. pneumoniae; 25 mg/ml kanamycin for E. faecium; 0,01 mg/ml ciprofloxacin for P. aeruginosa; 20 and 0,01 mg/ml cycloheximide for A. niger and S. cerevisiae, respectively; 0,1 mg/ml nystatin for C. albicans) and negative (MeOH/H2O 75/25%) controls. The remaining disks were used to test the compound of interest in triplicate. On each disk, 10 µl were loaded on the paper disk in two steps (2 x 5 µl) letting the paper dry between the two loadings. The Petri dishes were then incubated as described above. The antimicrobial activity of compounds of interest was visualized by its growth inhibition halo. […] Table 1: Inhibition diameter of the crude methanol 75% extract of spray-dried powder of Scenedemus sp. S4 and freeze-dried powders of D. armatus S0
The injection volume was fixed at 100 µL, the sample temperature in the autosampler was 10°C and the column was thermostatized at 37°C. The effluent was monitored by a photodiode array detector (Waters 2998 PDA detector, detection range: 200-800 nm) and collected using an automatic fraction collector (Waters Fraction Collector III, volume fraction: 500 µl). The collected fractions were then dried by using a vacuum centrifuge (Speedvac vacuum concentrator Savant SPD-111V, Thermo Scientific) and redissolved in 500 µL of MeOH/H2O 75% (75/25 v/v) and assayed for their capacity to inhibit the growth of S. aureus (disk assay as described above). Several fractions were selected for their antibacterial activity and preparative purifications were then carried out to obtain higher quantities of these compounds to allow their identification and subsequently their characterization.
Preparative chromatography was carried out by using an AKTA explorer system (GE Healthcare) and a preparative reverse phase column (Nucleodur C18 Gravity, 5 µm particule size, length x internal diameter: 25 cm x 1 cm) The chromatogram was recorded at 3 different wavelengths: 230 nm, 430 nm and 650 nm. The volume injected was 2 ml and the flow rate fixed at 2 ml/min. The same buffers as those used during analytical separation were selected and the gradient adapted to the column volume. Fraction size was adapted in such a way that one peak corresponded to one collected fraction. These fractions were then dried with a vacuum centrifuge and redissolved in 500 µL of MeOH/H2O 75%. Figure 3 presents the chromatogram obtained at 430 nm. […]

S. aureus (ATCC25923) = test: minimum inhibitory concentration by microdilution method; details: 37°C, in the dark, 24 hours, Mueller-Hinton broth; 1:40 dilution factor of 58.03 µg/ml stock
Protocol: The minimum inhibitory concentration (MIC) of 13^2-hydroxy-methylchlorophyllide a for S. aureus was determined using the microdilution method. In a 48-well plate, 500 µl of Mueller-Hinton broth were placed in each well. Then, 500 µl of a dilute solution of 13^2-hydroxy-methylchlorophyllide a (stock solution in MeOH/H2O 75% diluted 5x by Mueller-Hinton broth) were added to the first well and serial 2-fold dilutions were made by transferring 500 µL from one well to the next. For the last well, 500 µl were discarded. A culture of S. aureus (ATCC25923) growing in exponential phase was diluted with sterile NaCl 0.85% (w/v) to obtain a bacterial suspension corresponding to 0.5 tube McFarland unit and then dispensed in 500 µl aliquots in the 48 well plate. After covering the 48-plate with its lid, it was incubated at 37°C under agitation and in the dark for 24 hours. The MIC was defined as the last dilution for which no visible bacterial growth was observed. The concentration of the active compound was determined on the basis of a calibration line obtained by injecting increasing volumes of a solution of pure chlorophyllide a standard on a reverse-phase HPLC column.

S. aureus [2] = test: growth curve (OD600) of an early exponential culture after addition of compound; details: 1x and 4x the MIC, directly after addition, in the dark
Protocol: To further characterize the antibacterial action of 13^2-hydroxy-methylchlorophyllide a, a S. aureus culture in its early exponential phase of growth was submitted to the action of the chlorophyllide derivative. 100 ml of Mueller-Hinton broth were inoculated with an overnight culture of S. aureus to obtain a bacterial density corresponding to an optical density at 600 nm (OD^600) = 0.05. This culture was then incubated at 37°C under orbital shaking (240 rpm) by using an Aquatron (Infors) shaker. Once the cells enter early exponential growth (OD^600= 0.2), the culture was subdivided into three 20 ml cultures. For two cultures, 13^2-hydroxy-methylchlorophyllide a solubilized in MeOH/H2O 75% was added to reach a final concentration equal to 1x and 4x the MIC, respectively. For the third culture (control culture), a corresponding volume of MeOH/H2O without any chlorophyllide compound was added. In Figure 7 the optical density as a function of time is presented. The addition of the compounds occurred after 75 minutes. […] OD^600 remained unchanged during the whole experiment. This observation supports the hypothesis that no bacterial cell lysis takes place and that the antibacterial activity of 13^2-derivative is either bacteriostatic or non-lytic bactericidal.

S. aureus [3] = test: viable count (CFU per ml) after addition of compound; details: 1 or 4 x MIC, in the dark
Protocol: To distinguish between these two antibacterial activities, the number of viable S. aureus were determined by counting the colonies forming units (CFU) per ml of culture before the addition of the chlorophyllide derivative (t=0 h) and after 2 and 4 hours. […] The negative control is represented in black, while cultures treated with 1x and 4xMIC of purified S fraction are hatched and dotted respectively. The data presented are the average values of three independent experiments.
For culture without addition of chlorophyllide derivative (negative control, only addition of MeOH/H2O 75%) S. aureus maintained its growth and CFU/ml increased. On the contrary, once 13^2-hydroxy-methylchlorophyllide a was added (1 or 4 x MIC value in MeOH/H2O 75%, final concentration), the number of CFU/ml decreased of at least four logarithmic steps (4 log10). This means that the chlorophyllide derivative killed, in the dark, more than 99.99% of the bacterial population. The same result was observed after 2 and 4 hours even if for this latter culture a slight return of bacterial growth was observed.

red blood cell = test: sheep erythrocyte lysis assay; details: after 120 min, at 4 x MIC, 37°C
Protocol: Activity of 13^2-hydroxy-methylchlorophyllide a on red blood cell was determined using a sheep erythocyte lysis assay. The lytic action was assessed on defibrinated sheep blood (bioTRADING). The erythrocytes were harvested by centrifugation (1500 rpm, 5 min) and washed 10 times with phosphate buffer saline (PBS). The red blood cells were then diluted 25 times with PBS and washed two more times to obtain a colourless supernatant after a centrifugation at 3000 g for 5 minutes. Samples of 1 ml of red blood cells (25 times diluted) are transferred in Eppendorf tubes and the 13^2-hydroxy-methylchlorophyllide a, dissolved in MeOH/H2O 75% (v/v), was added to obtain a final concentration equal to 1x or 4x MIC. The tubes are then incubated at 37°C at 300 rpm by using a thermomixer HC (Starlab) and 100 µl samples were withdrawn at time 0, 5, 10, 15, 30, 60 and 120 min. […]
The erythrocyte lysis was highlighted by the presence of haemoglobin in the supernatant and quantified by measuring the absorbance of the supernatant at 540 nm by means of a microplate reader Tecan infinite200 pro. The percentage lysis was calculated as follows: % lysis = (AChl^540 −APBS^540)/(ASDS 0.1%^540) × 100 [formula] wherein AChl is the absorbance of the tested compound, APBS is the measured absorbance of the PBS solution and ASDS is the absorbance of the SDS solution (positive control), each at the wavelength of 540 nm. […]

13^2-hydroxy-chlorophyllide a [listing 1 of 2 here]
inhibition diameter (in brackets), in presence of light ([1]; disk diameter 6,0 mm): 0.86 cm
inhibition diameter (in brackets), in the dark ([1]; disk diameter 6,0 mm): 0.69 cm

13^2-hydroxy-chlorophyllide a [listing 2 of 2 here]
activity of inhibition of S. aureus growth [1]: active

13^2-hydroxy-chlorophyllide b [listing 1 of 2 here]
inhibition diameter (in brackets), in presence of light ([1]; disk diameter 6,0 mm): 0.70 cm
inhibition diameter (in brackets), in the dark ([1]; disk diameter 6,0 mm): 0.72 cm

13^2-hydroxy-chlorophyllide b [listing 2 of 2 here]
activity of inhibition of S. aureus growth [1]: active

13^2-hydroxy-methylchlorophyllide a [listing 1 of 2 here]
inhibition diameter (in brackets), in presence of light ([1]; disk diameter 6,0 mm): 1.12 cm
inhibition diameter (in brackets), in the dark ([1]; disk diameter 6,0 mm): 0.80 cm
activity of inhibition of S. aureus growth ([1]; listed as S): most active
MIC (S. aureus (ATCC25923)): 1.45 µg/mL
S. aureus growth (OD600) (S. aureus [2]): growth was stopped
decrease of the number of CFU/ml (S. aureus [3]; after 2 and 4 hours): ≥ 4 log10
bacterial population killed (S. aureus [3]): more than 99.99%
percentage of red blood cell hemolysis (red blood cell): lower than 10%

13^2-hydroxy-methylchlorophyllide a [listing 2 of 2 here]
activity of inhibition of S. aureus growth [1]: active

13^2-hydroxy-methylchlorophyllide b
inhibition diameter (in brackets), in presence of light ([1]; disk diameter 6,0 mm): 0.87 cm
inhibition diameter (in brackets), in the dark ([1]; disk diameter 6,0 mm): 0.73 cm

13^2-hydroxy-methylchlorophyllide b [K]
activity of inhibition of S. aureus growth [1]: active

NC[C@H]1O[C@H](O[C@H]2[C@H](O)[C@@H](O[C@H]3O[C@H](CO)[C@@H](O)[C@H](N)[C@H]3O)[C@H](N)C[C@@H]2N)[C@H](O)[C@@H](O)[C@@H]1O [Positive control, kanamycin, reference compound]
Inhibition diameter, Positive control ([1]; positive control disk on the plate of the named extract (1 mg/ml kanamycin for S. aureus), 10 µl per disk, disk diameter 6,0 mm): 2.10 cm and 1.62 cm

C=CC1=C(C)C2=NC1=CC1=NC(=Cc3[n-]c4c(c3C)=C([O-])C(C(=O)OC)C=4C3=NC(=C2)C(C)C3CCC(=O)OC)C(CC)=C1C.[Mg+2] (centres unmarked) [methyl chlorophyllide a, reference compound]
inhibition diameter (in brackets), in the dark ([1]; disk diameter 6,0 mm): 0.60 cm
